Here are results for one compound from US20050209335A1, “Methods for use of TARGRETIN in organ transplant rejection, autoimmune diseases and cancer” (priority 2004, published 2005).

The subject of series [1] is non-small-cell lung carcinoma. The following applies: oral, in combination with cisplatin and vinorelbin, previously untreated patients; cited from earlier work.
Series [2] is described as follows: Tolerability of TARGRETIN dosing regimes in patients. The format is in vivo, human. The text has this: Further, by “effective amount” as used herein, it is meant a concentration of TARGRETIN administered by a selected route and dosing schedule which lessens or decreases severity of a symptom of the disease state or condition from which the patient is suffering and/or a concentration of TARGRETIN which increases neutrophil count in a patient and/or a concentration of TARGRETIN which increases the efficacy of a co-administered cancer chemotherapeutic agent. Such amounts can be routinely determined by those skilled in the art based upon the teachings herein as well as what is known in the art about TARGRETIN with respect to treatment of cutaneous T-cell lymphoma. […] Further, the Food and Drug Administration's approved dose for TARGRETIN in the treatment of cutaneous T-cell lymphoma is 300 mg/M^2. It is expected that similar dosages will also be effective in treating autoimmune diseases or disorders, and in particular graft versus host disease, as well as organ transplant rejection.

Series [3] has as its system NMU-induced mammary carcinomas. The note with it: rat; cited from earlier work.
The subject of the next series is eczema dermatitis. As to the kind of experiment: TARGRETIN as substitute for tacrolimus and steroids in eczema dermatitis. The following applies: in vivo.
For the next series, the system named is melanoma. The following applies: single daily oral dose of 450 mg/m^2 in capsule form; cited from earlier work.
Series [4] has as its system T-cell non-Hodgkin's lymphoma. As to the kind of experiment: TARGRETIN in patients with T-cell non-Hodgkin's lymphomas other than cutaneous T-cell lymphoma. The format is in vivo, human. Here is the method:
Specifically, TARGRETIN was administered to a patient suffering from a post-transplant lymphoproliferative disorder type lymphoma. This is a T-cell non-Hodgkin's lymphoma related to organ transplantation. This patient had horrific lymphoma with involvement of their cerebral spinal fluid.
TARGRETIN was administered to a second patient suffering from a rare type of T-cell lymphoma, an angiocentric T-cell lymphoma.

Series [5] deals with refractory acute lymphocytic leukemia. The series is described as follows: TARGRETIN in combination with low dose chemotherapy in two patients with refractory acute lymphocytic leukemia. The format is in vivo, human. The following applies: both patients. Here is the method:
In these experiments, two patients with refractory acute lymphocytic leukemia were treated with TARGRETIN in combination with low dose chemotherapy.

The test system of series [6] is squamous cell carcinoma of the head and neck. The note with it: cited from earlier work.
The subject of series [7] is acute myeloid leukemia (AML). It counts as in vivo. As for the experimental part:
In these studies, five patients with relapsed refractory AML were treated with TARGRETIN monotherapy.
The first patient had failed induction chemotherapy, had fungal pneumonia, and active leukemia with no immune system. This patient was sent home under hospice care, but given TARGRETIN to take orally in a pill formulation. Within a few months, this patient no longer needed hospice care and had returned to work. It is believed that upon administration of TARGRETIN, this patient was able to maintain an immune system, thereby clearing the fungal pneumonia and preventing further fatal infections.
The second patient was a heart transplant patient who developed AML and failed induction chemotherapy as well as a second line of chemotherapy. With active leukemia and no immune system they were placed on TARGRETIN. […] Upon escalation of the TARGRETIN dose it was observed that their neutrophil count continued to increase and the leukemia count dropped. This increase in neutrophil count and decrease in leukemia count continued with each dose escalation until the patient was taking six TARGRETIN capsules a day. […] This syndrome is a cell differentiation disorder wherein leukemia cells differentiate into normal immune cells. While this syndrome is good in that it boosts the immune system while decreasing the leukemia count, cytokines released by the differentiating neutrophils can cause a pulmonary syndrome. At six TARGRETIN capsules a day the second patient developed a syndrome exactly like that observed in ATRA administration. TARGRETIN treatment was stopped and within one week the neutrophil count dropped from 1500 to 200 and the pulmonary syndrome resolved. TARGRETIN treatment was then restarted at three capsules daily and the neutrophil count returned to 600. This patient continued treatment for an additional 9 months at which time they developed an infection and died. At the time of death their leukemia was still well under control.
The third patient had failed induction therapy and was suffering from active AML with disseminated intravascular coagulation (DIC), a blood clotting disorder relating to active leukemia. This patient was completely bed-ridden. It was believed that they could not tolerate further chemotherapy and was placed on TARGRETIN. […] They also developed a small number of immune cells and was able to return to their home where their physical condition continued to improve. This patient lived for approximately 4.5 months before they developed progressive leukemia. At that point they declined further therapy and expired.
The fourth patient had raging AML. This patient was placed on TARGRETIN but expired within 3 days of starting treatment. It is believed that the TARGRETIN treatment may have been started too late in the course of this patient's disease to provide an effect.
The fifth patient treated with TARGRETIN was suffering from a relapse after already having undergone an allogeneic bone marrow transplant, one of the most aggressive treatments possible for AML. […] This patient ultimately expired, however, from complications relating to their bone marrow transplant.

Read-outs that look alike come from different tables or passages of the source.

For the compound `C=C(c1ccc(C(=O)O)cc1)c1cc2c(cc1C)C(C)(C)CCC2(C)C` [TARGRETIN], in series [1], the “response rate and survival” value is on record as “acceptable phase II response rates with better-than expected survival”. Besides, the tolerability entry in [2] (100 to 150 mg per meter square of body surface area, ongoing clinical trials) is recorded as “well-tolerated”; in [2] (oral 2-3 capsules a day or 150 to 225 mg a day), “without unwanted side effects”. Moreover, in [3], the “efficacy as chemopreventative and chemotherapeutic agent” value is “efficacious”. In the series on eczema dermatitis, the “efficacy in eczema dermatitis” value is “effective substitute for tacrolimus and steroids”. Also, the efficacy against melanoma entry in the series on melanoma is given as “ineffective”. Also, the duration of remission entry in series [4] (patient with angiocentric T-cell lymphoma, prior bone marrow transplant failed) was “in remission for three months”; in series [4] (patient with post-transplant lymphoproliferative disorder type lymphoma, prior chemotherapy failed), “in remission for four months”. Besides, the “efficacy of combination treatment” value in [5] is on record as “significantly greater than expected”. In addition, the effect on proliferation result in series [6] is “decrease”. Also, in [7] (fifth patient, relapse after allogeneic bone marrow transplant), the “immune response upon initiation of treatment” value is on record as “mounted an immune system response”. Moreover, the “duration leukemia kept under control” value in series [7] (first patient, oral pill formulation) is on record as “kept under control for nine months”. Further, the “time to death after starting treatment” value in series [7] (fourth patient, raging AML) is ≤ 3 days. Also, in series [7] (human, in vivo), the adverse event entry is recorded as “developed a pulmonary syndrome very similar to that seen in patients taking trans retinoic acid (ATRA)”. For the same compound, the “additional duration of treatment, leukemia still well under control at death” value in series [7] (second patient, after restart at three capsules daily) is 9 months. Besides, the neutrophil count turned out to be 1500 in series [7] (second patient, at six capsules a day, before treatment was stopped); 600 in [7] (second patient, treatment restarted at three capsules daily); 200 in [7] (second patient, within one week after TARGRETIN treatment was stopped). In addition, in series [7] (second patient, within one week of treatment), the “change of neutrophil count and leukemia count after start of treatment” value is “neutrophil count and/or immune system was rising and their leukemia count was dropping”. Besides, the “patients exhibiting a positive response (increase in neutrophil count and/or decrease in leukemia count)” value in [7] (terminal AML, TARGRETIN monotherapy) was 4 out of 5. Also, in [7] (third patient), the “resolution of disseminated intravascular coagulation (DIC)” value is on record as “resolved within four days”. The “time lived before progressive leukemia” value in [7] (third patient) was “approximately 4.5 months”.
